{"source": "patent US10996205B2", "about": "“Stress biomarkers and related non-invasive detection methods” (ARIZONA BOARD OF REGENTS ON BEHALF OF THE UNIVERSITY OF …, priority 2015, dated 2021)", "experiment": "Stability of cortisol in human eccrine sweat at room temperature", "description": "To test the stability of cortisol in human eccrine sweat in order to improve sweat collection method and procedures, aliquots of the same sweat samples were left at room temperature for a duration of 3 hours, with each aliquots analyzed every 30 minutes in first hour and every hour afterwards.\nSpiked human eccrine sweat samples were tested over a period of 3 hours at room temperature.", "data": [{"compound": "C[C@]12CCC(=O)C=C1CC[C@@H]1[C@@H]2[C@@H](O)C[C@@]2(C)[C@H]1CC[C@]2(O)C(=O)CO", "note": "[cortisol, 4-PREGNEN-11β, 17, 21-TRIOL-3, 20-DIONE]", "values": [{"measurement": "cortisol loss in spiked human eccrine sweat", "setting": "period of 3 hours at room temperature", "value": "No measurable cortisol loss"}, {"measurement": "Concentration", "setting": "spiked sweat, 0 minutes at room temperature", "value": 29.191, "unit": "ng/mL"}, {"measurement": "Concentration", "setting": "spiked sweat, 30 minutes at room temperature", "value": 36.802, "unit": "ng/mL"}, {"measurement": "Concentration", "setting": "spiked sweat, 1 hour at room temperature", "value": 30.807, "unit": "ng/mL"}, {"measurement": "Concentration", "setting": "spiked sweat, 2 hours at room temperature", "value": 30.228, "unit": "ng/mL"}, {"measurement": "Concentration", "setting": "spiked sweat, 3 hours at room temperature", "value": 29.515, "unit": "ng/mL"}, {"measurement": "Concentration", "setting": "unspiked human eccrine sweat", "value": 3.488, "unit": "ng/mL"}]}]}
